Values of other authors in US10138251B2, “Spiro[3H-indole-3,2′-pyrrolidin]-2(1H)-one compounds and derivatives as MDM2-P53 inhibitors” (Boehringer Ingelheim International GmbH, priority 2014, dated 2018).

How the values were obtained:
[1] = test system: human prostate tumor xenograft models harboring p53 wild-type; details: Tovar et al. 2013; cited from earlier work
[2] = test system: solid tumor xenograft models; details: Carol et al. 2013; cited from earlier work
[3] = test system: acute lymphoblastic leukemia (ALL) xenograft models with mixed-lineage leukemia (MLL) rearrangement; details: Carol et al. 2013; cited from earlier work
[4] = test system: human acute myeloid leukemia (AML) xenograft models harboring p53 wild-type; details: Tovar et al. 2013; cited from earlier work

For `CCOc1cc(C(C)(C)C)ccc1C1=N[C@@](C)(c2ccc(Cl)cc2)[C@@](C)(c2ccc(Cl)cc2)N1C(=O)N1CCN(CCCS(C)(=O)=O)CC1` [RG7112], the “antiproliferative and proapoptotic activity” value [1] is listed as “antiproliferative and proapoptotic activity”, the tumor growth inhibition [2] is listed as “induced tumor growth inhibition” and the efficacy [3] is listed as “particularly efficacious”. The “antiproliferative and proapoptotic activity” value [4] was “antiproliferative and proapoptotic activity”.
